Measured values taken from PubChem BioAssay (NCI).
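Each compound was tested at five concentrations against cells in 96-well plates for 48 hours. At the TGI there is no net growth.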

Columns and labels:
Assay in all cases: DTP human tumour cell line panel, 48 h
MDA-N = tested on: MDA-N
M19-MEL melanoma = tested on: M19-MEL melanoma
DLD-1 colon = tested on: DLD-1 colon
SNB-78 CNS = tested on: SNB-78 CNS
XF 498 CNS = tested on: XF 498 CNS
DMS 114 small cell lung = tested on: DMS 114 small cell lung
HOP-18 NSCLC = tested on: HOP-18 NSCLC
LXFL 529 NSCLC = tested on: LXFL 529 NSCLC
RXF-631 renal = tested on: RXF-631 renal

Structure (SMILES)	TGI (MDA-N) [µM]	TGI (M19-MEL melanoma) [µM]	TGI (DLD-1 colon) [µM]	TGI (SNB-78 CNS) [µM]	TGI (XF 498 CNS) [µM]	TGI (DMS 114 small cell lung) [µM]	TGI (HOP-18 NSCLC) [µM]	TGI (LXFL 529 NSCLC) [µM]	TGI (RXF-631 renal) [µM]
CC(C)(CN1CCCCC1)C(=O)/C=C/c1ccc(/C=C/C(=O)C(C)(C)CN2CCCCC2)cc1	0.401	2.35	0.323	7.17	1.28	1.95	2.57	0.682	–
CN1c2ccccc2N(C(=O)c2ccc([N+](=O)[O-])cc2)C(CC(=O)O)c2cccn21 (configuration not stated)	–	> 100	> 100	> 100	> 100	> 100	–	> 100	–
CC(C)C1=CC(=O)C(C)(C2C(O)CC3(C)C4CC=C5C(CCC(OC6OC(CO)C(O)C(O)C6OC6OC(C)C(O)C(O)C6O)C5(C)C)C4(C)C(=O)CC23C)O1 (configuration not stated)	> 100	–	–	–	–	–	–	–	–
CCC(C)CCOC(=O)c1ccc(N=Cc2ccc(C=Nc3ccc(C(=O)OCCC(C)CC)cc3)cc2)cc1 (configuration not stated)	–	–	> 100	> 100	–	> 100	> 100	> 100	–
O=C(N/C(=C\c1ccc(Cl)cc1)c1nc2ccccc2[nH]1)c1ccccc1	–	34.7	52.2	85.4	36.9	–	50.3	38.6	–
Cc1cc(NCCCCCCCCNc2cc(C)nc3cc(N)ccc23)c2ccc(N)cc2n1	–	45.3	> 100	–	–	30.8	–	45.2	–
CC(C)(O)[C@@H]1CC[C@@]2(C)CCCC(O)C2(O)C1 (some centres not stated)	–	> 100	> 100	–	> 100	> 100	> 100	> 100	> 100
C[C@@H](NC1CCCC[C@H]1O)c1ccccc1 (some centres not stated)	–	> 100	> 100	> 100	> 100	–	> 100	–	–
N#CCCN(c1ccc(C=Nc2ccccc2)cc1)S(=O)(=O)c1ccccc1	–	> 100	> 100	> 100	> 100	> 100	–	> 100	–
Nc1ncnc2c1ncn2[C@]1(CO)C=C(CO)C(O)C1O (some centres not stated)	–	–	> 100	> 100	> 100	> 100	> 100	> 100	> 100
CC(=O)OCC1OC(n2cc(F)c(=O)[nH]c2=O)C(NC(=O)N(CCCl)N=O)C(OC(C)=O)C1OC(C)=O (configuration not stated)	–	> 100	> 100	> 100	> 100	> 100	> 100	> 100	–
C/C(=C1/N=C(c2cc([N+](=O)[O-])ccc2Cl)N(c2cccc(C)c2)C1=O)c1cc2ccccc2oc1=O	–	> 100	> 100	> 100	81.2	> 100	> 100	> 100	> 100
CCCCCN(CCCCC)C(=O)[C@@H](CCC(=O)O)NC(=O)c1cc2ccccc2[nH]1	–	40.9	> 100	> 100	71.3	> 100	–	> 100	–
COC(=O)C(Cc1cc(OC)c(OC)c(OC)c1)C(=O)OC	–	> 320	> 320	–	> 320	> 320	–	> 320	> 320
Cc1ccc(S(=O)(=O)OCCn2cnc3nc(NC(=O)c4ccccc4)[nH]c(=O)c32)cc1	–	> 100	> 100	> 100	–	> 100	> 100	> 100	–
O=C(/C=C/c1cc(Cl)cc(Cl)c1O)c1cccc(O)c1	–	68.7	> 100	> 100	–	> 100	> 100	> 100	–
CN(C)C=Nc1ccn(CCO)c(=O)n1	–	> 100	> 100	> 100	–	> 100	> 100	> 100	> 100
O=C1CSCc2sccc21	> 100	–	–	–	–	–	–	–	–
